Laboratory results from patent US20080201790A1, “Method and product for regulating cell responsiveness to external signals” (priority 1993, published 2008).

Tested on: p42/p44 MAPK
Assay: MAPK assay (DEAE-Sephacel, EGFR662-681 peptide) in L929 cells
Type: cell-based, murine
Description: In panel A cells were treated for 10 minutes with the indicated concentration of TNFα. JNK activation was measured using a solid phase kinase assay resulting in phosphorylation of GST-Jun. In […] the time course of MAPK activation is shown. MAPK was isolated from cell lysates on DEAE sephacel columns and MAPK activation was measured by phosphorylation of the EGFR peptide substrate. Panel C depicts the concentration curve of MAPK activation by TNFα. Cells were treated with the indicated concentration of TNFα and MAPK was assayed.
FIG. 26 depicts the activation of MAPK by bFGF in L929 cells. Serum starved L929 cells were stimulated for 10 min with the indicated concentration of bFGF.
Cell lines and culture. L929 cells (ATCC CCL1 were maintained in Dulbecco's modified Eagle's medium with 5% newborn calf serum and 5% bovine calf serum (BCS) supplemented with 100 ug/ml streptomycin and 100 U/ml penicillin. The cells were grown in 10 cm dishes at 37° C. in 7.5% CO2. Cells were made quiescent where indicated by incubation in Dulbecco's modified Eagle's medium and 0.1% bovine serum albumin for 24 h. Recombinant murine TNFα and recombinant human bFGF (147aa) were from R&D Systems, Minneapolis, Minn. Cells were pretreated where indicated with the MEK-1 inhibitor PD#098059 (Parke-Davis Pharmaceutical Corp. Ann Arbor, Mich.) for 1 h at 37° C. Cells were stimulated by incubation with the indicated cytokine or growth factor for various times at 37° C. Stimulation was stopped by rinsing the plates twice with ice cold phosphate buffered saline (PBS) and lysing the cells in the appropriate lysis buffer. Cells were scraped from the plates and nuclei were pelleted for 10 min at 14,000 RPM in a microcentrifuge. JNK assay. JNK activity was measured using a solid state kinase assay in which glutathione S-transferase-c-Jun (1-79) (GST-JUN) cound to glutathione-Sepharose 4B beads was used to affinity purify JNK and then JNK activity was measured in an in vitro kinase assay using the sepharose bound GST-Jun as a substrate (Hibi, M., et al. (1993) Genes & Development 7:2135-2148). Stimulated or unstimulated cells were lysed in 0.5% Nonidet P-40, 20 mM HEPES pH 7.2, 100 mM NaCl, 2 mM dithiothreitol, 1 mM EDTA, 1.0 mM phenylmethylsulfonylfluoride, 1 μg/ml aprotinin and the nuclei pelleted. Lysates were normalized for protein content. JNK was affinity purified from 50-100 μg of cell lysate by the addition of 10 ul of GST-Jun sepharose slurry (2 μg GST-Jun). Binding to GST-Jun efficiently isolates the two major forms of JNK (p45 and p55) and under the conditions used JNK isolation was linear for 10-250 μg of cell lysate. The lysates were rotated at 4° C. for 1-3 h. Beads were washed twice in lysis buffer and then twice in PAN (10 mM PIPES, pH 7.0, 100 mM NaCl, 21 μg/ml aprotinin). Kinase reactions were carried out at 30° C. for 15 min in 20 mM Hepes pH 7.2, 20 mM β-glycerophosphate, 10 mM p-nitrophenyl phosphate, 10 mM MgCl2, 1 mM dithiothreitol, 50 μm sodium vanadate, 10 μCi γ^32P-ATP 4300 Ci/mmole. The kinase reaction was linear from 0-30 min. MAPK Assay MAPK activity was measured exactly as described previously (Gardner, A. M., et al. (1994) Meth. Enzymol. 238:258-270) with the exception that MonoQ FPLC fractionation was replaced by step elution from a DEAE-Sephacel column using 0.5 M NaCl in loading buffer. The eluate was assayed in triplicate using the epidermal growth factor receptor 662-681 peptide (EGFR662-681) as a selective substrate for MAPK activity (Heasley, L. E., et al. (1994) American Journal of Physiology (Renal Fluid Electrolyte Physiol. 36) 267:F366-F373). […] Cells were lysed by scraping in ice cold RIPA buffer (50 mM Tris-HCl, pH 7.2, 150 mM NaCl, 0.1% SDS, 0.5% sodium deoxycholate, 1.0% Triton X-100, 10 mM sodium pyrophosphate, 25 mM β-glycerophosphate, 2 mM sodium vanadate, 2.1 μg/ml aprotinin) and the nuclei were pelletted. […]

Substance | MAPK activity stimulated above basal (1 ng/ml TNFα) [%] | effect on MAPK activity (1 ng/ml TNFα, FIG. 27 panel B) | concentration required to stimulate p42/p44 MAPK 2-3 fold (L929 cells) | effect on bFGF stimulation of MAPK activity (L929 cells) | time to maximal stimulation of p42/p44 MAPK activity (L929 cells) [min] | concentrations giving maximal stimulation of MAPK activity (serum starved L929 cells, 10 min) [ng/mL]
TNFα | 20 | only modest stimulatory effects on MAPK activity | Greater than 10 ng/ml | had little or no effect on bFGF stimulation of MAPK activity | 5 to 10 | –
bFGF: recombinant human bFGF (147aa), basic fibroblast growth factor | – | – | – | – | – | 0.25 to 0.5
